From ChEMBL document CHEMBL1201862, “PubChem BioAssay data set” (2004) come the findings set out here.

Some test systems named below: CAKI-1; COLO 205; HOP-62; HOP-92; IGROV-1; KM12; LOX IMVI; Malme-3M; NCI/ADR-RES; OVCAR-5; OVCAR-8; SF-268; SK-MEL-28; SK-MEL-2; SK-MEL-5; SK-OV-3; SN12C; SR; UACC-62; UO-31.
Experiment in all cases: DTP human tumour cell line panel, 48 h

What is called GI50 is the concentration giving 50% growth inhibition.

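Following 48 hours of exposure in 96-well plates, responses at five concentrations were used to interpolate endpoints linearly. At the GI50, growth is halved.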 The source made the active and inactive calls. No stated cut-off is given here; in the data, active = GI50 up to about 1.1 µM and inactive = higher.

As to `O=C(CC(=O)c1ccccc1NC1=Cc2ccccc2C(=O)C1=O)C(=O)NC1=C(Cl)C(=O)c2ccccc2C1=O`, the GI50 was 8.28 µM (inactive) in the experiment on CAKI-1; 14.8 µM (inactive) in the experiment on COLO 205; 4.79 µM (inactive) in the experiment on HOP-62; 4.51 µM (inactive) in the experiment with HOP-92; 5.79 µM (inactive) with IGROV-1; 4.28 µM (inactive) in the experiment on KM12. The GI50 is 1.13 µM (inactive) in the experiment on LOX IMVI; 1.22 µM (inactive) with Malme-3M; 3 µM (inactive) with NCI/ADR-RES; 5.98 µM (inactive) in the experiment with OVCAR-5; 3.12 µM (inactive) in the experiment on OVCAR-8; 2.93 µM (inactive) with SF-268. Also, the GI50 was 1.89 µM (inactive) in the experiment with SK-MEL-28; 2.47 µM (inactive) with SK-MEL-2; 0.752 µM (active) in the experiment on SK-MEL-5; 23.3 µM (inactive) with SK-OV-3; 1.8 µM (inactive) with SN12C; 1.44 µM (inactive) in the experiment on SR. Moreover, the values for the GI50 in the experiment on UACC-62 and with UO-31 were 1.85 µM (inactive) and 6.89 µM (inactive), respectively.
For `CC(=O)O[C@H]1C[C@H]2C(=S)Nc3ccccc3C(=S)N2C1`, the GI50 in the experiment on CAKI-1, in the experiment with COLO 205, with HOP-62, in the experiment with HOP-92, in the experiment with IGROV-1 and in the experiment on KM12 was > 100 µM (inactive) throughout. Also, the GI50 in the experiment on LOX IMVI, with Malme-3M, with NCI/ADR-RES, with OVCAR-5, in the experiment with OVCAR-8 and in the experiment on SF-268 was > 100 µM (inactive) throughout. Further, the GI50 in the experiment with SK-MEL-28, in the experiment on SK-MEL-2, with SK-MEL-5, in the experiment on SK-OV-3, with SN12C and in the experiment with SR was > 100 µM (inactive) in each case. Besides, the GI50 in the experiment on UACC-62 and in the experiment on UO-31 was > 100 µM (inactive) each time.
On to `CC(=NNC(=S)Nc1cccc(C)c1)c1cccc(C(C)=NNC(=S)Nc2cccc(C)c2)n1`, for which the GI50 in the experiment on CAKI-1 was 11.9 µM (inactive); in the experiment with COLO 205 it was 8 µM (inactive); with HOP-62, 17 µM (inactive); in the experiment on HOP-92, 17.1 µM (inactive); in the experiment on IGROV-1 it was 10.8 µM (inactive); in the experiment with KM12, 0.851 µM (active). Besides, the GI50 is 15.5 µM (inactive) in the experiment with LOX IMVI; 14.9 µM (inactive) in the experiment on Malme-3M; 14.2 µM (inactive) in the experiment with NCI/ADR-RES; 34.8 µM (inactive) in the experiment with OVCAR-5; 11 µM (inactive) with OVCAR-8; 59.2 µM (inactive) in the experiment on SF-268. Moreover, the GI50 in the experiment with SK-MEL-28 is > 100 µM (inactive); in the experiment on SK-MEL-2, 13.3 µM (inactive); in the experiment on SK-MEL-5, 8.89 µM (inactive); with SK-OV-3 it was 44.4 µM (inactive); with SN12C, 25.8 µM (inactive); with SR it was 5.25 µM (inactive). Moreover, the figures for the GI50 with UACC-62 and in the experiment on UO-31 were 15.2 µM (inactive) and 16 µM (inactive), respectively.
For `c1cc2nsnc2c2c[nH]cc12`, the GI50 in the experiment with CAKI-1 was > 100 µM (inactive); in the experiment with COLO 205, > 100 µM (inactive); with HOP-62 it was > 100 µM (inactive); with HOP-92 it was 28.1 µM (inactive); with IGROV-1 it was 43.7 µM (inactive); in the experiment with KM12 it was > 100 µM (inactive). For the same compound, the GI50 with LOX IMVI was > 100 µM (inactive); with Malme-3M, > 100 µM (inactive); with NCI/ADR-RES, 61.5 µM (inactive); in the experiment on OVCAR-5, 47.4 µM (inactive); with OVCAR-8 it was 34.2 µM (inactive); in the experiment with SF-268, > 100 µM (inactive). Moreover, the GI50 was > 100 µM (inactive) in the experiment with SK-MEL-28; > 100 µM (inactive) in the experiment on SK-MEL-2; 61.4 µM (inactive) with SK-MEL-5; > 100 µM (inactive) with SK-OV-3; > 100 µM (inactive) in the experiment on SN12C; 96.6 µM (inactive) in the experiment on SR. Besides, the values for the GI50 in the experiment on UACC-62 and with UO-31 were 42.9 µM (inactive) and 25.5 µM (inactive), respectively.
Consider `CS(=O)(=O)OCCN(CCOS(C)(=O)=O)c1ccc(C=O)cc1`, for which the concentration for 50% growth inhibition (GI50) in the experiment with CAKI-1 was 0.427 µM (active); in the experiment with COLO 205, 1.81 µM (inactive); with HOP-62, 1.43 µM (inactive); in the experiment on HOP-92, 12.5 µM (inactive); in the experiment with IGROV-1 it was 12.8 µM (inactive); in the experiment with KM12, 10.4 µM (inactive). The GI50 with LOX IMVI is 5.08 µM (inactive); in the experiment on Malme-3M, 8.77 µM (inactive); in the experiment on NCI/ADR-RES it was 7.1 µM (inactive); with OVCAR-5 it was 3.5 µM (inactive); in the experiment on OVCAR-8 it was 7.35 µM (inactive); in the experiment on SF-268, 2.95 µM (inactive). In addition, the GI50 is 17.1 µM (inactive) with SK-MEL-28; 17.1 µM (inactive) in the experiment on SK-MEL-2; 6.27 µM (inactive) with SK-MEL-5; 1.14 µM (inactive) with SK-OV-3; 3.68 µM (inactive) in the experiment with SN12C; 0.236 µM (active) with SR. In addition, the results for the GI50 in the experiment with UACC-62 and in the experiment with UO-31 were 1.27 µM (inactive) and 1.11 µM (active), respectively.
On to `CCOC(=O)Cn1c(=O)c2cc(-c3ccccc3)cc3c(Cl)nc4c(OC)c(OC)cc1c4c32`, for which the GI50 in the experiment with CAKI-1 was 27.2 µM (inactive); with COLO 205, 50.6 µM (inactive); in the experiment with HOP-62, 28.8 µM (inactive); in the experiment on HOP-92, 10.7 µM (inactive); in the experiment on IGROV-1, 13 µM (inactive); with KM12, 31.6 µM (inactive). Besides, the GI50 was 11.6 µM (inactive) in the experiment on LOX IMVI; 0.578 µM (active) with Malme-3M; 16.9 µM (inactive) in the experiment with NCI/ADR-RES; > 100 µM (inactive) in the experiment on OVCAR-5; 15.6 µM (inactive) with OVCAR-8; 9.93 µM (inactive) with SF-268. For the same compound, the GI50 in the experiment on SK-MEL-28 is 21 µM (inactive); in the experiment with SK-MEL-2, 15 µM (inactive); in the experiment with SK-MEL-5, 24.7 µM (inactive); in the experiment with SK-OV-3, 43.8 µM (inactive); in the experiment on SN12C, 16.2 µM (inactive); in the experiment with SR, 1.99 µM (inactive). For the same compound, the GI50 is 14.8 µM (inactive) with UACC-62 and 2.07 µM (inactive) in the experiment on UO-31.
Turning to `CC1(C)COC(c2cccc(C(=O)c3ccccc3)c2)=N1`, the GI50 with CAKI-1 is 46.7 µM (inactive); in the experiment on COLO 205, 56.9 µM (inactive); with HOP-62, > 100 µM (inactive); in the experiment on HOP-92, 25.9 µM (inactive); with IGROV-1, > 100 µM (inactive); in the experiment with KM12, 44.6 µM (inactive). Further, the GI50 in the experiment on LOX IMVI was 38.6 µM (inactive); in the experiment on Malme-3M, 46.3 µM (inactive); with NCI/ADR-RES, 31.6 µM (inactive); with OVCAR-5, > 100 µM (inactive); with OVCAR-8, 48.5 µM (inactive); with SF-268, 90.4 µM (inactive). In addition, the GI50 with SK-MEL-28 was 42.8 µM (inactive); in the experiment with SK-MEL-2, > 100 µM (inactive); with SK-MEL-5 it was 17.1 µM (inactive); in the experiment on SK-OV-3, > 100 µM (inactive); in the experiment with SN12C, 32 µM (inactive); in the experiment with SR, 32.3 µM (inactive). The GI50 in the experiment with UACC-62 is 41.9 µM (inactive); with UO-31, 29.1 µM (inactive).
